Where “and” joins values, the source holds several entries; their conditions need not be identical. Equal values may be shown once.
Molecular target: T1, CETP (Homo sapiens, UniProt P11597)
T1 construct: from tissue; host or cells: human plasma from normal volunteers
T1 sequence (P11597 18-493): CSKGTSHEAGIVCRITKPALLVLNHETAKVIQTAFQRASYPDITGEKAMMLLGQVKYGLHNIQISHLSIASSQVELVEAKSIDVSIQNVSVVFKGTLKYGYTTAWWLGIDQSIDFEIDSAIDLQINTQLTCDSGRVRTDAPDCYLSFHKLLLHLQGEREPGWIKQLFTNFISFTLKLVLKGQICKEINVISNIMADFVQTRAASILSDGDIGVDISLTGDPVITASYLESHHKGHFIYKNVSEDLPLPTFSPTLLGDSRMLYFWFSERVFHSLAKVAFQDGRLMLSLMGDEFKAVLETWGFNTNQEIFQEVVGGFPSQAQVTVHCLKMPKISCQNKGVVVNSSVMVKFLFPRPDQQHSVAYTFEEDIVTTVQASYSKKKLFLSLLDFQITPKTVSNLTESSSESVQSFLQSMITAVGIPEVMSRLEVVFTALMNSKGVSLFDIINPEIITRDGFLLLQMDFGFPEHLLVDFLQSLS
Assay: CETP in vitro assay ([3H]CE-HDL transfer, Amersham kit TRKQ7005; modified protocol in human plasma)
Format: biochemical
Settings: multiple values = multiple measurements; for inhibition at 1 µM / % Inhibition @ 1 μM: 1 μM compound
Description: The CETP inhibitory activity of the compounds was determined using a commercially available kit from Amersham Biosciences (Catalog #TRKQ7005).
For the measurement of inhibitory activity in human plasma, a modified protocol (Connolly, D. T. et al., Biochemistry, 39 13870-13879, 2000) was used. Briefly, 80 μl of human plasma (obtained from normal volunteers), approximately 25 μg/ml (200) of [^3H]CE-HDL (Amersham Biosciences from kit TRKQ7005) and 1 μl of compound dissolved in DMSO was incubated for at least 4 hrs at 37° C. and non-specific transfer was determined by incubating a corresponding plate at 4° C. (blank). After the incubation period, 100 of a solution of 1% Dextralip 50/0.5M MgCl2, pH 7.4 was added, vortexed and incubated at room temperature for 10 min. The plate was then centrifuged for 30 min at 10° C. at 3000 rpm in a Sorvall RT6000B centrifuge. Fifty microliters of the supernatant was transferred to a Picoplate (Packard) containing 100 μl of Microscint 40 (Perkin Elmer) and mixed for 30 min using a plate mixer. The radioactivity was counted using a TopCount (Perkin Elmer) and the % control was determined in the samples using the following formula: % transfer relative to vehicle controls (% control)=[cpm blank-cpm test]/cpm blank/cpm control]×100. IC50s were calculated from plots of the % control versus compound concentration.
A variety of example compounds have been made and tested, with a range of in vitro results. Below, in Table 2, are representative compounds and the corresponding data; in some cases, where multiple IC50's are shown, multiple measurements were taken. Naturally, different compounds in Formula (I), (Ia), (Ib) and (Ic) may have not activities identical to any one compound below.

SMILES: O[C@H](CN1c2cccc(-c3cccc(OC(F)(F)F)c3)c2OC[C@H]1c1cccc(OC(F)(F)C(F)F)c1)C(F)(F)F [Compound 5, 4H-1,4-Benzoxazine-4-ethanol, 2,3-dihydro-3-[3-(1,1,2,2-tetrafluoroethoxy)phenyl]-8-[3-(trifluoromethoxy)phenyl]-α-(trifluoromethyl)-, (3R,αR)—]
- inhibition at 1 µM: 23%

SMILES: O[C@H](CN1c2cccc(-c3cc(C(F)(F)F)cc(C(F)(F)F)c3)c2OC[C@@H]1c1cccc(OC(F)(F)C(F)F)c1)C(F)(F)F [Compound 79, 4H-1,4-Benzoxazine-4-ethanol, 2,3-dihydro-3-[3-(1,1,2,2-tetrafluoroethoxy)phenyl]-8-[3,5-bis(trifluoromethyl)phenyl]-α-(trifluoromethyl)-, (3S,αR)—]
- inhibition at 1 µM: 43%
- % Inhibition @ 1 μM: 40%
- IC50: 5000 nM

SMILES: FC(F)C(F)(F)Oc1cccc(C2COc3c(-c4cccc(OC(F)(F)F)c4)cccc3N2CCN2CCOCC2)c1 (stereo not shown) [Compound 29, 4-(2-Morpholin-4-yl-ethyl)-3-[3-(1,1,2,2-tetrafluoro-ethoxy)-phenyl]-8-(3-trifluoromethoxy-phenyl)-3,4-dihydro-2H-benzo[1,4]oxazine]
- inhibition at 1 µM: 0%

SMILES: OC(CN1c2cccc(-c3cccc(OC(F)(F)F)c3)c2OCC1c1cccc(C(F)(F)F)c1)C(F)(F)F (stereo not shown) [Compound 70, 1,1,1-Trifluoro-3-[8-(3-trifluoromethoxy-phenyl)-3-(3-trifluoromethyl-phenyl)-2,3-dihydro-benzo[1,4]oxazin-4-yl]propan-2-ol]
- % Inhibition @ 1 μM: 37%

SMILES: CCCN1c2cccc(-c3cccc(OC(F)(F)F)c3)c2OCC1c1cccc(OC(F)(F)C(F)F)c1 (stereo not shown) [Compound 34, 4-Propyl-3-[3-(1,1,2,2-tetrafluoro-ethoxy)-phenyl]-8-(3-trifluoromethoxy-phenyl)-3,4-dihydro-2H-benzo[1,4]oxazine]
- inhibition at 1 µM: 38%
- % Inhibition @ 1 μM: 39%
- IC50: 190 nM

SMILES: Cc1ccsc1C1COc2c(-c3cccc(OC(F)(F)F)c3)cccc2N1CC(O)C(F)(F)F (stereo not shown) [Compound 86, 1,1,1-Trifluoro-3-[3-(3-methyl-thiophen-2-yl)-8-(3-trifluoromethoxy-phenyl)-2,3-dihydro-benzo[1,4]oxazin-4-yl]-propan-2-ol]
- % Inhibition @ 1 μM: 2%

SMILES: OC(CN1c2cccc(-c3cccc(OC(F)(F)F)c3)c2OCC1c1ccccc1)C(F)(F)F (stereo not shown) [Compound 95, 1,1,1-Trifluoro-3-[3-phenyl-8-(3-trifluoromethoxy-phenyl)-2,3-dihydro-benzo[1,4]oxazin-4-yl]-propan-2-ol]
- % Inhibition @ 1 μM: 43%

SMILES: OC(CN1c2cccc(-c3cccc(OC(F)(F)F)c3)c2OCC1c1ccco1)C(F)(F)F (stereo not shown) [Compound 89, 1,1,1-Trifluoro-3-[3-furan-2-yl-8-(3-trifluoromethoxy-phenyl)-2,3-dihydro-benzo[1,4]oxazin-4-yl]-propan-2-ol]
- inhibition at 1 µM: 17%

SMILES: OC(CN1c2cccc(-c3cccc(OC(F)(F)F)c3)c2OCC1c1cccc(OC(F)(F)F)c1)C(F)(F)F (stereo not shown) [Compound 7, 3-[3,8-Bis-(3-trifluoromethoxy-phenyl)-2,3-dihydro-benzo[1,4]oxazin-4-yl]-1,1,1-trifluoro-propan-2-ol]
- % Inhibition @ 1 μM: 64% and 66%
- IC50: 104 nM and 110 nM

SMILES: O[C@H](CN1c2cccc(-c3cc(F)c(F)c(F)c3)c2OC[C@@H]1c1cccc(OC(F)(F)C(F)F)c1)C(F)(F)F [Compound 77, 4H-1,4-Benzoxazine-4-ethanol, 2,3-dihydro-3-[3-(1,1,2,2-tetrafluoroethoxy)phenyl]-8-[3,4,5-trifluoro-phenyl]-α-(trifluoromethyl)-, (3S,αR)—]
- inhibition at 1 µM: 80%
- % Inhibition @ 1 μM: 82%
- IC50: 220 nM

SMILES: Cc1ccsc1C1COc2c(-c3cccc(OC(F)(F)F)c3)cccc2N1CC(O)C(F)(F)F (stereo not shown) [Compound 85, 1,1,1-Trifluoro-3-[3-(3-methyl-thiophen-2-yl)-8-(3-trifluoromethoxy-phenyl)-2,3-dihydro-benzo[1,4]oxazin-4-yl]-propan-2-ol]
- % Inhibition @ 1 μM: 20%

SMILES: OC(CN1c2cccc(-c3cccc(OC(F)(F)F)c3)c2OCC1c1cccc(OC(F)(F)F)c1)C(F)(F)F (stereo not shown) [Compound 8, 3-[3,8-Bis-(3-trifluoromethoxy-phenyl)-2,3-dihydro-benzo[1,4]oxazin-4-yl]-1,1,1-trifluoro-propan-2-ol]
- % Inhibition @ 1 μM: 21%

SMILES: CC(=O)NCCN1c2cccc(-c3cccc(OC(F)(F)F)c3)c2OCC1c1cccc(OC(F)(F)C(F)F)c1 (stereo not shown) [Compound 40, N-{2-[3-[3-(1,1,2,2-Tetrafluoro-ethoxy)-phenyl]-8-(3-trifluoromethoxy-phenyl)-2,3-dihydro-benzo[1,4]oxazin-4-yl]-ethyl}-acetamide]
- inhibition at 1 µM: 0%

SMILES: OC(CN1c2cccc(-c3cc(F)cc(F)c3)c2OCC1c1cccc(OC(F)(F)C(F)F)c1)C(F)(F)F (single isomer, unassigned) [Compound 65, 3-{8-(3,5-Difluoro-phenyl)-3-[3-(1,1,2,2-tetrafluoro-ethoxy)-phenyl]-2,3-dihydro-benzo[1,4]oxazin-4-yl}-1,1,1-trifluoro-propan-2-ol]
- % Inhibition @ 1 μM: 86% and 76%
- IC50: 990 nM

SMILES: OC(CN1c2cccc(-c3cc(F)cc(F)c3)c2OCC1c1cccc(OC(F)(F)C(F)F)c1)C(F)(F)F (single isomer, unassigned) [Compound 64, 3-{8-(3,5-Difluoro-phenyl)-3-[3-(1,1,2,2-tetrafluoro-ethoxy)-phenyl]-2,3-dihydro-benzo[1,4]oxazin-4-yl}-1,1,1-trifluoro-propan-2-ol]
- % Inhibition @ 1 μM: 121% and 101% and 119%
- IC50: 100 nM and 117 nM

SMILES: OC(CN1c2cccc(-c3cccc(OC(F)(F)F)c3)c2OCC1c1cccs1)C(F)(F)F (stereo not shown) [Compound 104, 1,1,1-Trifluoro-3-[3-thiophen-2-yl-8-(3-trifluoromethoxy-phenyl)-2,3-dihydro-benzo[1,4]oxazin-4-yl]-propan-2-ol]
- % Inhibition @ 1 μM: 0%

SMILES: COCCCN1c2cccc(-c3cccc(OC(F)(F)F)c3)c2OCC1c1cccc(OC(F)(F)C(F)F)c1 (stereo not shown) [Compound 27, 4-(3-Methoxy-propyl)-3-[3-(1,1,2,2-tetrafluoro-ethoxy)-phenyl]-8-(3-trifluoromethoxy-phenyl)-3,4-dihydro-2H-benzo[1,4]oxazine]
- inhibition at 1 µM: 29%

SMILES: OC(CN1c2cccc(-c3cccc(OC(F)(F)F)c3)c2OCC1c1cccc(SC(F)(F)F)c1)C(F)(F)F (stereo not shown) [Compound 15]
- % Inhibition @ 1 μM: 67% and 69%
- IC50: 360 nM

SMILES: CN(CCN1c2cccc(-c3cccc(OC(F)(F)F)c3)c2OCC1c1cccc(OC(F)(F)C(F)F)c1)S(C)(=O)=O (stereo not shown) [Compound 44, N-Methyl-N-{2-[3-[3-(1,1,2,2-tetrafluoro-ethoxy)-phenyl]-8-(3-trifluoromethoxy-phenyl)-2,3-dihydro-benzo[1,4]oxazin-4-yl]-ethyl}-methanesulfonamide]
- inhibition at 1 µM: 0%

SMILES: COCCN1c2cccc(-c3cccc(OC(F)(F)F)c3)c2OCC1c1cccc(OC(F)(F)C(F)F)c1 (stereo not shown) [Compound 24, 4-(2-Methoxy-ethyl)-3-[3-(1,1,2,2-tetrafluoro-ethoxy)-phenyl]-8-(3-trifluoromethoxy-phenyl)-3,4-dihydro-2H-benzo[1,4]oxazine]
- inhibition at 1 µM: 25%

SMILES: O[C@@H](CN1c2cccc(-c3cccc(OC(F)(F)F)c3)c2SC[C@@H]1c1cccc(OC(F)(F)C(F)F)c1)C(F)(F)F [Compound 107]
- % Inhibition @ 1 μM: 59% and 87%
- IC50: 134 nM and 198 nM

SMILES: CC1(C)OC[C@H](CN2c3cccc(-c4cccc(OC(F)(F)F)c4)c3OC[C@H]2c2cccc(OC(F)(F)C(F)F)c2)O1 [Compound 46, 2H-1,4-Benzoxazine, 4-[[(4S)-2,2-dimethyl-1,3-dioxolan-4-yl]methyl]-3,4-dihydro-3-[3-(1,1,2,2-tetrafluoroethoxy)phenyl]-8-[3-(trifluoromethoxy)phenyl]-, (3R)—]
- inhibition at 1 µM: 20%

SMILES: O[C@@H](CN1c2cccc(-c3cccc(OC(F)(F)F)c3)c2SC[C@H]1c1cccc(OC(F)(F)C(F)F)c1)C(F)(F)F [Compound 108]
- inhibition at 1 µM: 34%
- % Inhibition @ 1 μM: 39%
- IC50: > 2920 nM

SMILES: OC(CN1c2cccc(-c3cccc(OC(F)(F)F)c3)c2OCC1c1ccc(OC(F)(F)F)cc1)C(F)(F)F (stereo not shown) [Compound 97, 1,1,1-Trifluoro-3-[3-(4-trifluoromethoxy-phenyl)-8-(3-trifluoromethoxy-phenyl)-2,3-dihydro-benzo[1,4]oxazin-4-yl]-propan-2-ol]
- % Inhibition @ 1 μM: 38%

From patent US8012963B2, “3,4-dihydro-2H-benzo[1,4]oxazine and thiazine derivatives as CETP inhibitors” (Janssen Pharmaceutica N.V., priority 2006, dated 2011)
